The values below come from patent publication US11708359B2, “Monoacylglycerol lipase modulators” (Janssen Pharmaceutica NV, priority 2020, dated 2023).

Where two headings read alike, the source gives them in different places.

In this assay the target is human MGL from HeLa cells (Homo sapiens (Human), UniProt Q99685). Kind of assay: MGL in vitro activity assay ([glycerol-1,3-3H]-oleoyl glycerol cleavage, activated carbon filter). The class given is biochemical. As to the method: The assay consists of combining endogenously expressed MGL from HeLa cells with test compounds, adding[glycerol-1,3-^3H]-oleoyl glycerol, incubating for one hour, and then measuring the amount of cleaved[1,3-^3H]-glycerol that passes through an activated carbon filter. The amount of cleaved, tritiated glycerol passing through the carbon filter is proportional to the activity of the MGL enzyme in a particular well/test condition.
Chain of human MGL from HeLa cells (Q99685 whole entry): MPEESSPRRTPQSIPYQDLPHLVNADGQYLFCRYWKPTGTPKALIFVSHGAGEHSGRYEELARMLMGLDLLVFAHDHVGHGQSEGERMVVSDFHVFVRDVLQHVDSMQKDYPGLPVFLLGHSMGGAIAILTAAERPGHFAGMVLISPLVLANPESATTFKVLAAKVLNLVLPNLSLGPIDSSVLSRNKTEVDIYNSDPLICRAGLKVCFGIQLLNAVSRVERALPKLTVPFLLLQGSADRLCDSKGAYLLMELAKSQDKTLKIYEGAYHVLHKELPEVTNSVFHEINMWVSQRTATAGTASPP
Standard conditions for this assay combine 300 nM [Glycerol-1,3-^3H]-oleoyl glycerol with human MGL from HeLa cells and test compounds for one hour, after which the reaction is filtered through activated carbon and tritium is measured in the flow through. […] MGL is the predominant hydrolase in HeLa cells/cell homogenates.

Setting [1] is: 300 nM [Glycerol-1,3-3H]-oleoyl glycerol, endogenously expressed MGL from HeLa cells, one hour incubation, read-out: MGL IC50.

Broadly, the IC50 is the concentration needed to halve the response being measured. On to `O=C1N[C@]2(CO1)C[C@H](C(=O)N1CCC3(c4ccc(OC(F)(F)F)cc4)CC3C1)C2` (mixture of isomers) [Example 54, (rac)-(2s,4s)-2-(6-(4-(Trifluoromethoxy)phenyl)-3-azabicyclo[4.1.0]heptane-3-carbonyl)-7-oxa-5-azaspiro[3.4]octan-6-one], for which the IC50 under setting [1] amounted to 2.5 nM.

For the compound `O=C1CC[C@]2(C[C@H](C(=O)N3CCC4(c5ccc(OC(F)(F)F)cc5)CC4C3)C2)N1` (mixture of isomers) [Example 55, (rac)-(2r,4s)-2-(6-(4-(Trifluoromethoxy)phenyl)-3-azabicyclo[4.1.0]heptane-3-carbonyl)-5-azaspiro[3.4]octan-6-one], the IC50 under setting [1] came to 10 nM.

Turning to `Cc1ccc(C23CCN(C(=O)[C@H]4C[C@]5(COC(=O)N5)C4)CC2C3)cc1` (mixture of isomers) [Example 56, (rac)-(2s,4s)-2-(6-(p-Tolyl)-3-azabicyclo[4.1.0]heptane-3-carbonyl)-7-oxa-5-azaspiro[3.4]octan-6-one], the IC50 under setting [1] came to 7.7 nM.

As to `O=C1N[C@]2(CO1)C[C@H](C(=O)N1CCC3(c4cccc(C(F)(F)F)c4)CC3C1)C2` (mixture of isomers) [Example 57, (rac)-(2s,4s)-2-(6-(3-(Trifluoromethyl)phenyl)-3-azabicyclo[4.1.0]heptane-3-carbonyl)-7-oxa-5-azaspiro[3.4]octan-6-one], the IC50 under setting [1] was 1.9 nM.

Turning to `CC(C)(C)c1cccc(C23CCN(C(=O)[C@H]4C[C@]5(COC(=O)N5)C4)CC2C3)c1` (mixture of isomers) [Example 60, (rac)-(2s,4s)-2-(6-(3-(tert-Butyl)phenyl)-3-azabicyclo[4.1.0]heptane-3-carbonyl)-7-oxa-5-azaspiro[3.4]octan-6-one], under setting [1], the IC50 was found to be 0.0072 nM.

For the compound `CC(C)(C)c1cccc(C23CCN(C(=O)[C@H]4C[C@]5(CCC(=O)N5)C4)CC2C3)c1` (mixture of isomers) [Example 61, (rac)-(2r,4s)-2-(6-(3-(tert-Butyl)phenyl)-3-azabicyclo[4.1.0]heptane-3-carbonyl)-5-azaspiro[3.4]octan-6-one], under setting [1], the IC50 came out at 0.25 nM.

As for `CC(C)(C)c1ccc(C23CCN(C(=O)[C@H]4C[C@]5(CCC(=O)N5)C4)CC2C3)cc1` (mixture of isomers) [Example 63, (rac)-(2r,4s)-2-(6-(4-(tert-Butyl)phenyl)-3-azabicyclo[4.1.0]heptane-3-carbonyl)-5-azaspiro[3.4]octan-6-one], the IC50 under setting [1] came to 0.41 nM.

As for `O=C1N[C@]2(CO1)C[C@H](C(=O)N1CCC3(c4cccc(C5CC5)c4)CC3C1)C2` (mixture of isomers) [Example 64, (rac)-(2s,4s)-2-(6-(3-Cyclopropylphenyl)-3-azabicyclo[4.1.0]heptane-3-carbonyl)-7-oxa-5-azaspiro[3.4]octan-6-one], the IC50 under setting [1] is 0.65 nM.

For `O=C1CC[C@]2(C[C@H](C(=O)N3CCC4(c5cccc(C6CC6)c5)CC4C3)C2)N1` (mixture of isomers) [Example 65, (rac)-(2r,4s)-2-(6-(3-Cyclopropylphenyl)-3-azabicyclo[4.1.0]heptane-3-carbonyl)-5-azaspiro[3.4]octan-6-one], the IC50 under setting [1] was found to be 4 nM.

With `O=C1N[C@]2(CO1)C[C@H](C(=O)N1CCC3(c4ccc(C5CC5)cc4)CC3C1)C2` (mixture of isomers) [Example 66, (rac)-(2s,4s)-2-(6-(4-Cyclopropylphenyl)-3-azabicyclo[4.1.0]heptane-3-carbonyl)-7-oxa-5-azaspiro[3.4]octan-6-one], the IC50 under setting [1] worked out at 0.69 nM.

`Cc1ccc(C23CCN(C(=O)[C@H]4C[C@]5(CCC(=O)N5)C4)CC2C3)cc1Cl` (mixture of isomers) [Example 68, (rac)-(2r,4s)-2-(6-(3-Chloro-4-methylphenyl)-3-azabicyclo[4.1.0]heptane-3-carbonyl)-5-azaspiro[3.4]octan-6-one]: the IC50 under setting [1] came to 5.6 nM.

On to `CC1(c2ccc(C34CCN(C(=O)[C@H]5C[C@]6(CCC(=O)N6)C5)CC3C4)cc2)CC1` (mixture of isomers) [Example 70, (rac)-(2r,4s)-2-(6-(4-(1-Methylcyclopropyl)phenyl)-3-azabicyclo[4.1.0]heptane-3-carbonyl)-5-azaspiro[3.4]octan-6-one], for which the IC50 under setting [1] was 0.52 nM.

For `Cc1cc(C2CC2)ccc1C12CCN(C(=O)[C@H]3C[C@]4(COC(=O)N4)C3)CC1C2` (mixture of isomers) [Example 72, (rac)-(2s,4s)-2-(6-(4-Cyclopropyl-2-methylphenyl)-3-azabicyclo[4.1.0]heptane-3-carbonyl)-7-oxa-5-azaspiro[3.4]octan-6-one], the IC50 under setting [1] amounted to 2.1 nM.

As for `CC(C)c1cccc(C23CCN(C(=O)[C@H]4C[C@]5(COC(=O)N5)C4)CC2C3)c1` (mixture of isomers) [Example 73, (rac)-(2s,4s)-2-(6-(3-Isopropylphenyl)-3-azabicyclo[4.1.0]heptane-3-carbonyl)-7-oxa-5-azaspiro[3.4]octan-6-one], under setting [1], the IC50 was 0.25 nM.

`Cc1ccc(C23CCN(C(=O)[C@H]4C[C@]5(COC(=O)N5)C4)CC2C3)cc1OC(F)(F)F` (mixture of isomers) [Example 75, (rac)-(2s,4s)-2-(6-(4-Methyl-3-(trifluoromethoxy)phenyl)-3-azabicyclo[4.1.0]heptane-3-carbonyl)-7-oxa-5-azaspiro[3.4]octan-6-one] came in with a half-maximal inhibitory concentration (IC50) of 0.34 nM.

`Cc1ccc(C23CCN(C(=O)[C@H]4C[C@]5(CCC(=O)N5)C4)CC2C3)cc1OC(F)(F)F` (mixture of isomers) [Example 76, (rac)-(2r,4s)-2-(6-(4-Methyl-3-(trifluoromethoxy)phenyl)-3-azabicyclo[4.1.0]heptane-3-carbonyl)-5-azaspiro[3.4]octan-6-one] registered an IC50 of 2.6 nM.

For the compound `O=C1N[C@]2(CO1)C[C@H](C(=O)N1CCC3CC3(c3ccccc3)C1)C2` (mixture of isomers) [Example 77, (rac)-(2s,4s)-2-(1-Phenyl-3-azabicyclo[4.1.0]heptane-3-carbonyl)-7-oxa-5-azaspiro[3.4]octan-6-one], the IC50 under setting [1] came to 241 nM.

Take `CCc1ccc(C23CC2CN(C(=O)[C@H]2C[C@]4(COC(=O)N4)C2)C3)cc1` (mixture of isomers) [Example 94, (rac)-(2s,4s)-2-(1-(4-Ethylphenyl)-3-azabicyclo[3.1.0]hexane-3-carbonyl)-7-oxa-5-azaspiro[3.4]octan-6-one]: under setting [1], the IC50 turned out to be 3.5 nM.

Take `Cc1ccccc1[C@H]1[C@@H]2CN(C(=O)[C@H]3C[C@]4(COC(=O)N4)C3)C[C@@]21C` (racemic) [Example 97, (rac)-(2s,4*S)-2-((1*R,5*S,6*R)-1-Methyl-6-(o-tolyl)-3-azabicyclo[3.1.0]hexane-3-carbonyl)-7-oxa-5-azaspiro[3.4]octan-6-one]: the IC50 under setting [1] was determined as 180 nM.

On to `Cc1ccc([C@H]2[C@@H]3CN(C(=O)[C@H]4C[C@]5(COC(=O)N5)C4)C[C@@]32C)cc1C` (racemic) [Example 102, (rac)-(2s,4*5)-2-((1*R,5*S,6*R)-6-(3,4-Dimethylphenyl)-1-methyl-3-azabicyclo[3.1.0]hexane-3-carbonyl)-7-oxa-5-azaspiro[3.4]octan-6-one], for which, under setting [1], the IC50 is 23 nM.

Regarding `C[C@]12CN(C(=O)[C@H]3C[C@]4(COC(=O)N4)C3)C[C@H]1[C@@H]2c1cccc(C(F)(F)F)c1` (racemic) [Example 106, (rac)-(2s,4*5)-2-((1*R,5*S,6*R)-1-Methyl-6-(3-(trifluoromethyl)phenyl)-3-azabicyclo[3.1.0]hexane-3-carbonyl)-7-oxa-5-azaspiro[3.4]octan-6-one], the IC50 under setting [1] turned out to be 28 nM.

As to `C[C@]12CN(C(=O)[C@H]3C[C@]4(COC(=O)N4)C3)C[C@H]1[C@@H]2c1ccc(OC(F)(F)F)cc1` (racemic) [Example 107, (rac)-(2s,4*5)-2-((1*R,5*S,6*R)-1-Methyl-6-(4-(trifluoromethoxy)phenyl)-3-azabicyclo[3.1.0]hexane-3-carbonyl)-7-oxa-5-azaspiro[3.4]octan-6-one], the IC50 under setting [1] came to 73 nM.

With `C[C@]12CN(C(=O)[C@H]3C[C@]4(COC(=O)N4)C3)C[C@H]1[C@@H]2c1ccc(C2CC2)cc1` (racemic) [Example 108, (rac)-(2s,4*5)-2-((1*R,5*S,6*R)-6-(4-Cyclopropylphenyl)-1-methyl-3-azabicyclo[3.1.0]hexane-3-carbonyl)-7-oxa-5-azaspiro[3.4]octan-6-one], the IC50 under setting [1] amounted to 38 nM.

For `Cc1ccc([C@H]2[C@@H]3CN(C(=O)[C@H]4C[C@]5(COC(=O)N5)C4)C[C@@]32C)cc1C(F)(F)F` (racemic) [Example 112, (rac)-(2s,4*S)-2-((1*R,5*S,6*R)-1-Methyl-6-(4-methyl-3-(trifluoromethyl)phenyl)-3-azabicyclo[3.1.0]hexane-3-carbonyl)-7-oxa-5-azaspiro[3.4]octan-6-one], the IC50 under setting [1] stood at 6 nM.

As to `Cc1ccc([C@H]2[C@@H]3CN(C(=O)[C@H]4C[C@]5(COC(=O)N5)C4)C[C@@]32C)cc1OC(F)(F)F` (racemic) [Example 114, (rac)-(2s,4*S)-2-((1*R,5*S,6*R)-1-Methyl-6-(4-methyl-3-(trifluoromethoxy)phenyl)-3-azabicyclo[3.1.0]hexane-3-carbonyl)-7-oxa-5-azaspiro[3.4]octan-6-one], under setting [1], the IC50 worked out at 4.1 nM.

On to `O=C1N[C@]2(CO1)C[C@H](C(=O)N1CCC3(c4ccccc4)C(Cl)C3C1)C2` (mixture of isomers) [Example 123, (rac)-(2s,4s)-2-(7-Chloro-6-phenyl-3-azabicyclo[4.1.0]heptane-3-carbonyl)-7-oxa-5-azaspiro[3.4]octan-6-one], for which the IC50 under setting [1] came to 200 nM.

As to `O=C1N[C@]2(CO1)C[C@H](C(=O)N1CCC3(c4ccccc4)C(C1)C3(Cl)Cl)C2` (racemic) [Example 124, (rac)-(2s,4s)-2-(7,7-Dichloro-6-phenyl-3-azabicyclo[4.1.0]heptane-3-carbonyl)-7-oxa-5-azaspiro[3.4]octan-6-one], under setting [1], the IC50 worked out at 32 nM.
